The structures appear in SMILES notation. Several values for one entry are separate records, joined by “and”; a condition that tells them apart may be missing. Equal entries are not always repeated. Inconclusive results and toxic doses are left out.

This experiment has as its system P388 leukemia ip, CD2F1 mice, survival T/C. Nature of the experiment: NCI In Vivo Anticancer Drug Screen. Data for tumor model P388 Leukemia (intraperitoneal) in CD2F1 (CDF1) mice. The note with it: endpoint: median survival time, higher = longer survival. The method, boiled down:
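Mice carrying the transplanted tumor received test compound or vehicle. Survival was recorded in each group, and the value is the treated-group measurement divided by that of the vehicle-treated control group.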

[1] abbreviates: dose: 50.0 mg/kg/injection, schedule: Q01DX009 (ip), vehicle: saline.
[2] abbreviates: dose: 100.0 mg/kg/injection, schedule: Q01DX009 (ip), vehicle: saline.
Setting [3] is: dose: 200.0 mg/kg/injection, schedule: Q01DX009 (ip), vehicle: saline.
[4] abbreviates: dose: 25.0 mg/kg/injection, schedule: Q01DX009 (ip), vehicle: saline with Tween-80.
Where [5] appears, read: dose: 50.0 mg/kg/injection, schedule: Q01DX009 (ip), vehicle: saline with Tween-80.
The mark [6] stands for this setting: dose: 50.0 mg/kg/injection, schedule: Q01DX009 (ip), vehicle: Klucel (hydroxypropylcellulose) (HPC).
Setting [7] is: dose: 100.0 mg/kg/injection, schedule: Q01DX009 (ip), vehicle: Klucel (hydroxypropylcellulose) (HPC).
[8] abbreviates: dose: 100.0 mg/kg/injection, schedule: Q01DX009 (ip), vehicle: saline with Tween-80.
[9] abbreviates: dose: 200.0 mg/kg/injection, schedule: Q01DX009 (ip), vehicle: saline with Tween-80.
The mark [10] stands for this setting: dose: 50.0 mg/kg/injection, schedule: Q01DX005 (ip), vehicle: Klucel (hydroxypropylcellulose) (HPC).
Where [11] appears, read: dose: 100.0 mg/kg/injection, schedule: Q01DX005 (ip), vehicle: Klucel (hydroxypropylcellulose) (HPC).
[12] abbreviates: dose: 200.0 mg/kg/injection, schedule: Q01DX005 (ip), vehicle: Klucel (hydroxypropylcellulose) (HPC).

For the compound `Cc1cc(S(=O)(=O)[O-])ccc1-n1nc(C)[c-](N=Nc2cc(S(=O)(=O)[O-])ccc2C(=O)[O-])c1=O.[Cr+3].[Na+].[OH-]` (stereo unspecified), the T/C was 104 % of control under setting [1], 104 % of control under setting [2] and 108 % of control under setting [3].
With `COc1ccc(CSC(=S)Nc2ccccc2C(F)(F)F)cc1`, the T/C is, setting by setting: (dose: 50.0 mg/kg/injection, schedule: Q01DX009 (ip), vehicle: suspension in saline) 93 % of control; (dose: 100.0 mg/kg/injection, schedule: Q01DX009 (ip), vehicle: suspension in saline) 91 % of control; (dose: 200.0 mg/kg/injection, schedule: Q01DX009 (ip), vehicle: suspension in saline) 92 % of control.
On to `COc1cc(O)c(C(C)=O)c(O)c1`, for which the T/C was 102 % of control (dose: 6.25 mg/kg/injection, schedule: Q01DX009 (ip), vehicle: saline with Tween-80); 93 % of control (dose: 12.5 mg/kg/injection, schedule: Q01DX009 (ip), vehicle: saline with Tween-80); 102 % of control under setting [4]; 100 % of control under setting [5].
In the case of `Cc1cc(NC(=S)Nc2ccccc2)c(NC(=S)Nc2ccccc2)cc1C`, the T/C runs as follows: (dose: 25.0 mg/kg/injection, schedule: Q01DX009 (ip), vehicle: Klucel (hydroxypropylcellulose) (HPC)) 97 % of control; under setting [6], 100 % of control; under setting [7], 98 % of control; (dose: 200.0 mg/kg/injection, schedule: Q01DX009 (ip), vehicle: Klucel (hydroxypropylcellulose) (HPC)) 92 % of control; (dose: 400.0 mg/kg/injection, schedule: Q01DX009 (ip), vehicle: Klucel (hydroxypropylcellulose) (HPC)) 106 % of control.
As to `Cc1ncn2c(C)nnc2c1C`, the T/C under setting [5] was 102 % of control, the T/C under setting [8] is 100 % of control and the T/C under setting [9] is 102 % of control.
Turning to `Cc1c2ccncc2c(CN(CCO)CCO)c2c3ccccc3n(C)c12`, the T/C is 103 % of control (dose: 5.0 mg/kg/injection, schedule: Q01DX005 (ip), vehicle: saline); 100 % of control (dose: 10.0 mg/kg/injection, schedule: Q01DX005 (ip), vehicle: saline); 90 % of control (dose: 20.0 mg/kg/injection, schedule: Q01DX005 (ip), vehicle: saline).
On to `O=C1NC(=O)N(C(F)(F)F)C(F)(F)N1C(F)(F)F`, for which the T/C by setting is: under setting [10], 107 % of control; under setting [11], 107 % of control.
Turning to `Cc1ccc2c(c1)NC(=O)CC(c1ccccc1)=N2`, the T/C (dose: 60.0 mg/kg/injection, schedule: Q01DX005 (ip), vehicle: saline with Tween-80) was 97 % of control; the T/C (dose: 120.0 mg/kg/injection, schedule: Q01DX005 (ip), vehicle: saline with Tween-80) is 96 % of control; the T/C (dose: 240.0 mg/kg/injection, schedule: Q01DX005 (ip), vehicle: saline with Tween-80) was 96 % of control.
As for `Nc1ccc2c(n1)NCC/C2=N\Nc1ccc(Br)cc1`, the T/C runs as follows: under setting [5], 103 % of control; under setting [8], 104 % of control; under setting [9], 106 % of control.
As for `Nc1ncnc(Nc2ccc(S(N)(=O)=O)cc2)n1`, the T/C by setting is: (dose: 5.0 mg/kg/injection, schedule: Q01DX009 (ip), vehicle: Klucel (hydroxypropylcellulose) (HPC)) 100 % of control; (dose: 10.0 mg/kg/injection, schedule: Q01DX009 (ip), vehicle: Klucel (hydroxypropylcellulose) (HPC)) 97 % of control; (dose: 20.0 mg/kg/injection, schedule: Q01DX009 (ip), vehicle: Klucel (hydroxypropylcellulose) (HPC)) 100 % of control.
Turning to `COc1c2ccoc2cc2oc(=O)ccc12`, the T/C under setting [10] was 102 % of control, the T/C under setting [11] is 96 % of control and the T/C under setting [12] was 93 % of control.
For the compound `CC(C)(C)CC(C)(C)NC(=S)NC1C2CC3CC(C2)CC1C3` (stereo unspecified), the T/C runs as follows: under setting [6], 89 % of control; under setting [7], 90 % of control.
With `CCOC(=O)c1ccc2ccc(OC)c(OC)c2c1`, the T/C runs as follows: (dose: 12.5 mg/kg/injection, schedule: Q01DX009 (ip), vehicle: other) 95 % of control; (dose: 25.0 mg/kg/injection, schedule: Q01DX009 (ip), vehicle: other) 97 % of control; (dose: 50.0 mg/kg/injection, schedule: Q01DX009 (ip), vehicle: other) 104 % of control; (dose: 100.0 mg/kg/injection, schedule: Q01DX009 (ip), vehicle: other) 95 % of control; (dose: 200.0 mg/kg/injection, schedule: Q01DX009 (ip), vehicle: other) 104 % of control.
For the compound `CCOC(CCl)(NC(C)=O)C(=O)OC` (stereo unspecified), the T/C was 104 % of control (dose: 100.0 mg/kg/injection, schedule: Q01DX001 (ip), vehicle: Klucel (hydroxypropylcellulose) (HPC)); 100 % of control (dose: 200.0 mg/kg/injection, schedule: Q01DX001 (ip), vehicle: Klucel (hydroxypropylcellulose) (HPC)); 106 % of control (dose: 400.0 mg/kg/injection, schedule: Q01DX001 (ip), vehicle: Klucel (hydroxypropylcellulose) (HPC)).
For the compound `Nc1ncn[nH]1`, the T/C reads like this: under setting [1], 99 % of control and 105 % of control; under setting [2], 98 % of control and 97 % of control; under setting [3], 100 % of control and 106 % of control; (dose: 400.0 mg/kg/injection, schedule: Q01DX009 (ip), vehicle: saline) 99 % of control.
With `C=C(OC)C(Nc1cc(OC)c(OC)cc1C(=O)OC1CC(O[C@@H]2C(=O)C(NC(=O)OC)=C3/C(=C\CSSSC)[C@]2(O)C#C/C=C\C#C[C@@H]3OC2OC(C)C(NOC3CC(O)C(SC)C(C)O3)C(O)C2OC2CC(OC)C(NCCC)CO2)OC(C)C1O)OC` (stereo partly specified), the T/C is 163 % of control (dose: 1.28 micrograms/kg/injection, schedule: Q01DX005 (ip), vehicle: alcohol); 88 % of control (dose: 2.5 micrograms/kg/injection, schedule: Q01DX005 (ip), vehicle: saline + alcohol); 120 % of control (dose: 2.5 nanograms/kg/injection, schedule: Q01DX005 (ip), vehicle: saline + alcohol); 155 % of control and 177 % of control (dose: 2.56 micrograms/kg/injection, schedule: Q01DX005 (ip), vehicle: alcohol); 118 % of control (dose: 5.0 nanograms/kg/injection, schedule: Q01DX005 (ip), vehicle: saline + alcohol); 115 % of control (dose: 5.12 micrograms/kg/injection, schedule: Q01DX005 (ip), vehicle: alcohol). The T/C is, setting by setting: (dose: 10.0 nanograms/kg/injection, schedule: Q01DX005 (ip), vehicle: saline + alcohol) 123 % of control; (dose: 320.0 nanograms/kg/injection, schedule: Q01DX005 (ip), vehicle: saline + alcohol) 164 % of control; (dose: 640.0 nanograms/kg/injection, schedule: Q01DX005 (ip), vehicle: saline + alcohol) 174 % of control; (dose: 1280.0 nanograms/kg/injection, schedule: Q01DX005 (ip), vehicle: saline + alcohol) 95 % of control.
Consider `C=CCNC(=O)c1ccccc1SC(C)=O`, for which the T/C under setting [5] was 117 % of control and 119 % of control; the T/C under setting [8] was 120 % of control; the T/C under setting [9] was 114 % of control.
On to `Cc1cc(N(c2ccc([N+](=O)[O-])cc2)S(C)(=O)=O)c(C)cc1C=O`, for which the T/C is 101 % of control under setting [4], 99 % of control under setting [5] and 98 % of control under setting [8].
As to `C[C@@H]1CN(C(=O)CCOS(C)(=O)=O)[C@@H](C)CN1C(=O)CCOS(C)(=O)=O`, the T/C is, setting by setting: (dose: 3.13 mg/kg/injection, schedule: Q04DX003 (ip), vehicle: saline) 113 % of control; (dose: 6.25 mg/kg/injection, schedule: Q04DX003 (ip), vehicle: saline) 122 % of control; (dose: 264.0 mg/kg/injection, schedule: Q04DX003 (ip), vehicle: saline with Tween-80) 218 % of control; (dose: 400.0 mg/kg/injection, schedule: Q04DX003 (ip), vehicle: saline with Tween-80) 118 % of control.
Consider `CCCCCCC(/C=C/c1ccc(Cl)c(Cl)c1)=N\Nc1c(F)c(F)c(F)c(F)c1F`, for which the T/C by setting is: under setting [5], 86 % of control; under setting [8], 99 % of control; under setting [9], 98 % of control.
`O=C1c2ccccc2C(=O)N1c1ccccc1Br`: the T/C under setting [10] was 100 % of control, the T/C under setting [11] is 97 % of control and the T/C under setting [12] was 101 % of control.
In the case of `O=S12(OC(C(F)(F)F)(C(F)(F)F)c3ccccc31)OC(C(F)(F)F)(C(F)(F)F)c1ccccc12`, the T/C by setting is: under setting [10], 111 % of control; under setting [11], 103 % of control; under setting [12], 100 % of control.
For the compound `CCN(CC)CCSCCNc1cc(OC)cc2cccnc12`, the T/C reads like this: (dose: 12.5 mg/kg/injection, schedule: Q01DX005 (ip), vehicle: saline) 101 % of control; (dose: 25.0 mg/kg/injection, schedule: Q01DX005 (ip), vehicle: saline) 101 % of control; (dose: 50.0 mg/kg/injection, schedule: Q01DX005 (ip), vehicle: saline) 89 % of control and 97 % of control.

These data come from PubChem BioAssay AID330 (DTP/NCI, 2004).
